Data published in patent US9186361B2, “Compounds and compositions for the treatment of parasitic diseases” (Novartis AG, priority 2013, dated 2015).

Tests used:
Assay type in all cases: cell-based
[1] = test system: Leishmania donovani axenic amastigote parasites; assay: Assay for Leishmania proliferation in vitro (axenic amastigotes, Cell TiterGlo); conditions: 48 h, 2 day incubation, read-out: L. donovani amastigotes EC50
In short: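 L. donovani axenic amastigotes (9600 per well) are cultured with compound for 2 days at 37° C, 5% CO2 in RPMI-based medium at pH 5.5. Viability is read by CellTiterGlo luminescence, and EC50 is calculated.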

[2] = test system: L. donovani HU3 strain in mouse peritoneal macrophages; assay: Proliferation of L. donovani in mouse peritoneal macrophages (SybrGreen, high-content imaging); conditions: Leishmania donovani, Peritoneal macrophage, 120 h; infected mouse peritoneal macrophages, 5 days; read-out: L. donavani Macrophage EC50
In short: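 Peritoneal macrophages from uninfected BALB/c mice were infected for 24 h with spleen-derived amastigotes (9-11 week infected mice), then exposed to compound for 5 days at 37° C. Fixed cells stained with SybrGreen and parasite nuclei counted by high-content imaging; EC50 calculated from inhibition.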

[3] = test system: Trypanosoma cruzi amastigotes cultured in 3T3 fibroblast cells; assay: Assay for proliferation of kinetoplastid parasite Trypanosoma cruzi (beta-galactosidase/CPRG readout); conditions: NIH3T3, 144 h, Tulahuen strain in 3T3 cells, 6 day incubation, read-out: T cruzi EC50
Excerpt: Compounds of the invention can be assayed to measure their capacity to inhibit proliferation of kinetoplastid parasite Trypanosoma cruzi. The screening procedure is for identifying compounds with inhibitor activity against Trypanosoma cruzi amastigotes cultured in 3T3 fibroblast cells. The assay is done using the mammalian stage (amastigotes) of T. cruzi that replicates in the intracellular space of host cells. The host cells are initially infected with the culture-derived trypomastigotes that rapidly invade and then divide as amastigotes. The protocol uses the Tulahuen strain of T. cruzi that has been engineered to express the E. coli beta-galactosidase gene (Lac-Z) (Antimicr. Agents Chemoth. 40:2592, 1996). This allows for a colorimetric readout by using the substrate CPRG and an absorbance plate reader.
3T3 fibroblast cells are re-suspended in RPMI-1640 medium without phenol red medium supplemented with 10% FBS (heat inactivated), 100 μg/ml penicillin, and 100 μg/ml streptomycin. Forty μL of suspension (1,000 cells) is dispensed into 384-well plates and incubated overnight at 37° C. temperature and in atmosphere containing 5% CO2. The following day, 100 nL of compounds of the invention in DMSO are added to plate wells containing 3T3 cells. At the same time control compounds (benznidazole and nifurtimox) and DMSO are added to plates to serve as the positive and negative controls, respectively. After that, 10 μL of media containing 10,000 T. cruzi trypomastigotes are added to each plate well and plates are placed back into incubators. After 6 day incubation, 10 μL of reagent solution (0.6 mM CPRG, 0.6% NP-40 in PBS) is added to plates and incubated at room temperature for 2 hours. Absorbance is then measured on SpectraMax Gemini fluorimeter to determine relative number of T. cruzi cells present in each plate well. The percentage inhibition of 50%, EC50, is calculated for each compound.

[4] = test system: Trypanosoma brucei Lister 427 strain; assay: Assay for proliferation of kinetoplastid parasite Trypanosoma brucei (Cell Titer Glo); conditions: bloodstream form, 48 hours, read-out: T. brucei EC50
Excerpt: The proliferation is quantified by the addition of Cell Titer Glo (Promega®) a luminescent cell viability assay that measures the number of viable cells in culture based on the quantification of cellular ATP amount, which is an indicator of metabolically active cells. The following assay illustrates the invention without in any way limiting the scope of the invention. This parasite proliferation assay measures the increase in parasite growth using an assay that measures ATP activity, Cell Titer Glo®.
Trypanosoma brucei Lister 427 strain is grown in HMI-9 Trypanosome media for T. brucei bloodstream form. 30 μl of HMI-9 media is dispensed into 384 well assay plates. 200 nL of compounds of the invention (in DMSO), including anti-trypanosome controls (Pentamidine and suramin), are then transferred into the assay plates, as well as DMSO alone to serve as a negative control for inhibition. Then 25 μl of a suspension of T. brucei culture in HMI-9 media is dispensed into the assay plates. The final concentration of parasites in culture corresponds to 1.7% of 0.5 uM ATP activity with Cell Titer Glo® in HMI-9 media. The plates are placed in a 37° C. incubator for 48 hours in an atmospheric environment containing 5% CO2. 40 μl of Cell Titer Glo® is dispensed into the plates. The plates are then read for luminescence. The percentage inhibition of 50%, EC50, is calculated for each compound.

Row | SMILES | EC50 [1] [nM] | EC50 [2] [nM] | EC50 [3] [nM] | EC50 [4] [nM]
1 | CC(C)(N)C(=O)Nc1cnc2nc(-c3cc(NC(=O)c4ccco4)ccc3Cl)[nH]c2c1 [Example 26, N-{3-[6-(2-amino-2-methylpropanamido)-1H-imidazo[4,5-b]pyridin-2-yl]-4-chlorophenyl}furan-2-carboxamide] | > 25000 | 23300 | 14800 | 530
2 | O=C(C[C@@H]1CCNC1)Nc1cnc2nc(-c3cc(NC(=O)c4ccco4)ccc3Cl)[nH]c2c1 [Example 32, N-[4-chloro-3-(6-{2-[(3S)-pyrrolidin-3-yl]acetamido}-1H-imidazo[4,5-b]pyridin-2-yl)phenyl]furan-2-carboxamide] | > 25000 | > 50000 | > 20000 | 7800
3 | O=C(C[C@H]1CCNC1)Nc1cnc2nc(-c3cc(NC(=O)c4ccco4)ccc3Cl)[nH]c2c1 [Example 34, N-[4-chloro-3-(6-{2-[(3R)-pyrrolidin-3-yl]acetamido}-1H-imidazo[4,5-b]pyridin-2-yl)phenyl]furan-2-carboxamide] | > 25000 | > 50000 | > 20000 | 15200
4 | O=C(Nc1ccc(Cl)c(-c2nc3ncc(NC(=O)C4(O)CC4)cc3[nH]2)c1)c1ccco1 [Example 35, N-(4-chloro-3-{6-[(1-hydroxycyclopropane)amido]-1H-imidazo[4,5-b]pyridin-2-yl}phenyl)furan-2-carboxamide] | 11400 | > 50000 | > 20000 | 907
5 | N#CC1(C(=O)Nc2cnc3nc(-c4cc(NC(=O)c5ccco5)ccc4Cl)[nH]c3c2)CC1 [Example 41, N-(4-chloro-3-{6-[(1-cyanocyclopropane)amido]-1H-imidazo[4,5-b]pyridin-2-yl}phenyl)-furan-2-carboxamide] | 680 | 1450 | 820 | 80
6 | COCC1(C(=O)Nc2cnc3nc(-c4cc(NC(=O)c5ccco5)ccc4Cl)[nH]c3c2)CC1 [Example 42, N-[4-chloro-3-(6-{[1-(methoxymethyl)cyclopropane]amido}-1H-imidazo[4,5-b]pyridin-2-yl)phenyl]furan-2-carboxamide] | 1090 | 1910 | 1320 | 185
7 | O=C(Nc1ccc(Cl)c(-c2nc3ncc(NC(=O)C4CC4(F)F)cc3[nH]2)c1)c1ccco1 (centres unmarked) [Example 44, N-(4-chloro-3-{6-[(2,2-difluorocyclopropane)amido]-1H-imidazo[4,5-b]pyridin-2-yl}phenyl)furan-2-carboxamide] | 2380 | 5300 | 3900 | 282
8 | O=C(Nc1ccc(Cl)c(-c2nc3ncc(NC(=O)C4CC4)cc3[nH]2)c1)c1ccco1 [Example 45, N-(4-chloro-3-{6-cyclopropaneamido-1H-imidazo[4,5-b]pyridin-2-yl}phenyl)-furan-2-carboxamide] | 450 | 1160 | 2860 | 115
9 | CC(C)OC(=O)Nc1cnc2nc(-c3cc(NC(=O)c4ccc(F)o4)ccc3Cl)[nH]c2c1 [Example 47, propan-2-yl N-{2-[2-chloro-5-(5-fluorofuran-2-amido)phenyl]-1H-imidazo[4,5-b]pyridin-6-yl}carbamate] | 900 | 1520 | 400 | 200
10 | CC(C)OC(=O)Nc1cnc2nc(-c3cc(NC(=O)c4ccc(C#N)o4)ccc3Cl)[nH]c2c1 [Example 48, propan-2-yl N-{2-[2-chloro-5-(5-cyanofuran-2-amido)phenyl]-1H-imidazo[4,5-b]pyridin-6-yl}carbamate] | 620 | 560 | 141 | 223
11 | CC1(OC(=O)Nc2cnc3nc(-c4cc(NC(=O)c5ccco5)ccc4Cl)[nH]c3c2)CC1 [Example 49, 1-methylcyclopropyl N-{2-[2-chloro-5-(furan-2-amido)phenyl]-1H-imidazo[4,5-b]pyridin-6-yl}carbamate] | 480 | 490 | 440 | 81
12 | CC(C)OC(=O)Nc1cnc2nc(-c3cc(NC(=O)N4CCCC4)ccc3Cl)[nH]c2c1 [Example 54, propan-2-yl N-(2-{2-chloro-5-[(pyrrolidin-1-yl)carbonylamino]phenyl}-1H-imidazo[4,5-b]pyridin-6-yl)carbamate] | 590 | 1860 | 1390 | 68
13 | O=C(Nc1ccc(Cl)c(-c2nc3ncc(NC(=O)C4CCC4)cc3[nH]2)c1)c1ccco1 [Example 55, N-(4-chloro-3-{6-cyclobutaneamido-1H-imidazo[4,5-b]pyridin-2-yl}phenyl)furan-2-carboxamide] | 950 | 830 | 1250 | 75
14 | CC1(C)CC(C(=O)Nc2cnc3nc(-c4cc(NC(=O)c5ccco5)ccc4Cl)[nH]c3c2)C1 [Example 56, N-(4-chloro-3-{6-[(3,3-dimethylcyclobutane)amido]-1H-imidazo[4,5-b]pyridin-2-yl}phenyl)furan-2-carboxamide] | 2960 | 2230 | 1230 | 346
15 | O=C(Nc1ccc(Cl)c(-c2nc3ncc(NC(=O)C4CC(F)(F)C4)cc3[nH]2)c1)c1ccco1 [Example 57, N-(4-chloro-3-{6-[(3,3-difluorocyclobutane)amido]-1H-imidazo[4,5-b]pyridin-2-yl}phenyl)furan-2-carboxamide] | 8200 | 12800 | 7400 | 500
16 | CC(C)(C)OC(=O)NCC1(C(=O)Nc2cnc3nc(-c4cc(NC(=O)c5ccco5)ccc4Cl)[nH]c3c2)CC1 [Example 63, tert-butyl N-{[1-({2-[2-chloro-5-(furan-2-amido)phenyl]-1H-imidazo[4,5-b]pyridin-6-yl}carbamoyl)cyclopropyl]methyl}carbamate] | 460 | 530 | 248 | 44
17 | O=C(Nc1ccc(Cl)c(-c2nc3ncc(NC(=O)C4CC4)cc3[nH]2)c1)c1ccc(F)o1 [Example 65, N-(4-chloro-3-{6-cyclopropaneamido-1H-imidazo[4,5-b]pyridin-2-yl}phenyl)-5-fluorofuran-2-carboxamide] | 1470 | 570 | 1020 | 23
18 | O=C(CCCN1CCOCC1)Nc1cnc2nc(-c3cc(NC(=O)c4ccc(F)o4)ccc3Cl)[nH]c2c1 [Example 66, N-(4-chloro-3-{6-[4-(morpholin-4-yl)butanamido]-1H-imidazo[4,5-b]pyridin-2-yl}phenyl)-5-fluorofuran-2-carboxamide] | > 25000 | 39200 | > 20000 | 2300
19 | CC(C)(C)OC(=O)NCCC(=O)Nc1cnc2nc(-c3cc(NC(=O)c4ccc(F)o4)ccc3Cl)[nH]c2c1 [Example 68, tert-butyl N-[2-({2-[2-chloro-5-(5-fluorofuran-2-amido)phenyl]-1H-imidazo[4,5-b]pyridin-6-yl}carbamoyl)ethyl]carbamate] | 6200 | 7000 | 7600 | 411
20 | N#CC1(C(=O)Nc2cnc3nc(-c4cc(NC(=O)c5ccc(F)o5)ccc4Cl)[nH]c3c2)CC1 [Example 70, N-(4-chloro-3-{6-[(1-cyanocyclopropane)amido]-1H-imidazo[4,5-b]pyridin-2-yl}phenyl)-5-fluorofuran-2-carboxamide] | 1200 | 530 | 720 | 32
